The assay deals with T1, hSTING (Homo sapiens, UniProt Q86WV6, G230A/H232R/R293Q/R71H).
T1 construct: host or cells: THP1-Dual KO-IFNAR2 cells
Description: STING reporter assay (luciferase) in THP1-Dual KO-IFNAR2 cells activated with 2'3'cGAMP. In kind it is cell-based. The conditions noted are these: 15 μM 2'3'cGAMP, 24 h. The protocol:
STING pathway activation by the compounds described herein was measured using THP1-Dual™ cells (KO-IFNAR2).
THP1-Dual™ KO-IFNAR2 Cells (obtained from invivogen) were maintained in RPMI, 10% FCS, 5 ml P/S, 2 mM L-glut, 10 mM Hepes, and 1 mM sodium pyruvate. Compounds were spotted in empty 384 well tissue culture plates (Greiner 781182) by Echo for a final concentration of 0.0017-100 μM. Cells were plated into the TC plates at 40 μL per well, 2×10E6 cells/mL. For activation with STING ligand, 2′3′cGAMP (MW 718.38, obtained from Invivogen), was prepared in Optimem media.
The following solutions were prepared for each 1×384 plate: • Solution A: 2 mL Optimem with one of the following stimuli: • 60 μL of 10 mM 2′3′cGAMP 4 150 μM stock • Solution B: 2 mL Optimem with 60 μL Lipofectamine 2000 4 Incubate 5 min at RT
2 mL of solution A and 2 ml Solution B was mixed and incubated for 20 min at room temperature (RT). 20 μL of transfection solution (A+B) was added on top of the plated cells, with a final 2′3′cGAMP concentration of 15 μM. The plates were then centrifuged immediately at 340 g for 1 minute, after which they were incubated at 37° C., 5% CO2, >98% humidity for 24 h. Luciferase reporter activity was then measured. EC50 values were calculated by using standard methods known in the art.
Luciferase reporter assay: 10 μL of supernatant from the assay was transferred to white 384-plate with flat bottom and squared wells. One pouch of QUANTI-Luc™ Plus was dissolved in 25 mL of water. 100 μL of QLC Stabilizer per 25 mL of QUANTI-Luc™ Plus solution was added. 50 μL of QUANTI-Luc™ Plus/QLC solution per well was then added. Luminescence was measured on a Platereader (e.g., Spectramax I3X (Molecular Devices GF3637001)).
Luciferase reporter activity was then measured. EC50 values were calculated by using standard methods known in the art.
Background: A reporter such as luciferase makes a cellular process visible.

T1 sequence (Q86WV6 whole entry R71H/G230A/H232R/R293Q): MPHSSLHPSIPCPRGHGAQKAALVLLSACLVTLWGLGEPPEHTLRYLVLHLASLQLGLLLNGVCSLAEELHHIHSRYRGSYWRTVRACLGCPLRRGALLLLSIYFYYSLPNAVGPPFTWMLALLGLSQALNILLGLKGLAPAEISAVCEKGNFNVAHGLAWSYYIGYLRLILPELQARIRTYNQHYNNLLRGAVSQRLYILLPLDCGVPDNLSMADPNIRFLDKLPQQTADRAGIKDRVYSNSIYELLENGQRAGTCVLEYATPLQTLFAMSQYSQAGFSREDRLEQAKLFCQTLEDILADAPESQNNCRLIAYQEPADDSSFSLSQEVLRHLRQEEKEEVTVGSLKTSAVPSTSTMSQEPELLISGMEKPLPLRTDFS

What is called EC50 is the concentration giving half of the maximal effect. Read a high EC50 as a less potent agent. Regarding `COCCn1c(Nc2cc(Cl)c3cc[nH]c3c2)nc2cc(Cl)c(Cl)cc21` [Compound 104, 5,6-dichloro-N-(4-chloro-1H-indol-6-yl)-1-(2-methoxyethyl)-1H-benzo[d]imidazol-2-amine], the EC50 was in the range of 1 to 5 µM.
`Fc1cc(Nc2nc3cc(Cl)c(Cl)cc3[nH]2)cc2[nH]ccc12` [Compound 105, 5,6-dichloro-N-(4-fluoro-1H-indol-6-yl)-1H-benzo[d]imidazol-2-amine] yielded an EC50 of 0.2 to 1 µM.
For the compound `Clc1ccc2c(c1)nc(Nc1cc(Cl)c3cc[nH]c3c1)n2Cc1ccccc1` [Compound 106, 1-benzyl-5-chloro-N-(4-chloro-1H-indol-6-yl)-1H-benzo[d]imidazol-2-amine], the EC50 was 1 to 5 µM.
To `Clc1ccc2c(c1)nc(Nc1cc(Cl)c3cc[nH]c3c1)n2CCc1ccccc1` [Compound 107, 5-chloro-N-(4-chloro-1H-indol-6-yl)-1-phenethyl-1H-benzo[d]imidazol-2-amine] belongs 1 to 5 µM; to `Clc1cc(Nc2nc3ccc(C4CCC4)cc3[nH]2)cc2[nH]ccc12` [Compound 108, N-(4-chloro-1H-indol-6-yl)-6-cyclobutyl-1H-benzo[d]imidazol-2-amine], 0.2 to 1 µM.
For `Cn1c(Nc2cc(Cl)c3cc[nH]c3c2)nc2cc(Cl)c(Cl)cc21` [Compound 109, 5,6-dichloro-N-(4-chloro-1H-indol-6-yl)-1-methyl-1H-benzo[d]imidazol-2-amine], the 50% effective concentration (EC50) was in the range of 0.2 to 1 µM.
In turn, `Clc1cc2nc(Nc3cc(Cl)c4cc[nH]c4c3)[nH]c2cc1Cl` [Compound 110, 5,6-dichloro-N-(4-chloro-1H-indol-6-yl)-1H-benzo[d]imidazol-2-amine] registered an EC50 of 0.04 to 0.2 µM.
To `FC(F)(F)c1cc2[nH]c(Nc3cc(Cl)c4cc[nH]c4c3)nc2cn1` [Compound 111, N-(4-chloro-1H-indol-6-yl)-6-(trifluoromethyl)-1H-imidazo[4,5-c]pyridin-2-amine] belongs 0.2 to 1 µM; to `FC(F)(F)c1cnc2nc(Nc3cc(Cl)c4cc[nH]c4c3)[nH]c2c1` [Compound 112, N-(4-chloro-1H-indol-6-yl)-6-(trifluoromethyl)-1H-imidazo[4,5-b]pyridin-2-amine], 0.2 to 1 µM.
The compound `Cn1c(Nc2cc(Cl)c3cc[nH]c3c2)nc2cc(C(F)(F)F)ccc21` [Compound 113, N-(4-chloro-1H-indol-6-yl)-1-methyl-5-(trifluoromethyl)-1H-benzo[d]imidazol-2-amine] registered an EC50 of 1 to 5 µM.
The compound `Cn1c(Nc2ccc3cc[nH]c3c2)nc2ccc(C(F)(F)F)cc21` [Compound 114, N-(1H-indol-6-yl)-1-methyl-6-(trifluoromethyl)-1H-benzo[d]imidazol-2-amine] showed an EC50 of 1 to 5 µM.
To `Fc1ccc2nc(Nc3cc(Cl)c4cc[nH]c4c3)[nH]c2c1` [Compound 115, N-(4-chloro-1H-indol-6-yl)-6-fluoro-1H-benzo[d]imidazol-2-amine] belongs 0.2 to 1 µM; to `N#Cc1ccc2[nH]c(Nc3cc(Cl)c4cc[nH]c4c3)nc2c1` [Compound 116, 2-((4-chloro-1H-indol-6-yl)amino)-1H-benzo[d]imidazole-5-carbonitrile], 0.2 to 1 µM; to `Clc1ccc2[nH]c(Nc3cc(Cl)c4cc[nH]c4c3)nc2c1` [Compound 117, 5-chloro-N-(4-chloro-1H-indol-6-yl)-1H-benzo[d]imidazol-2-amine], 0.2 to 1 µM.
`Cc1ccc2[nH]c(Nc3cc(Cl)c4cc[nH]c4c3)nc2c1` [Compound 118, N-(4-chloro-1H-indol-6-yl)-5-methyl-1H-benzo[d]imidazol-2-amine]: the EC50 lay in the range of 0.2 to 1 µM.
`Clc1cc(Nc2nc3cc(Br)ccc3[nH]2)cc2[nH]ccc12` [Compound 119, 5-bromo-N-(4-chloro-1H-indol-6-yl)-1H-benzo[d]imidazol-2-amine] came in with a 50% effective concentration (EC50) of 0.2 to 1 µM.
The same measure for `FC(F)(F)c1ccc2[nH]c(Nc3cc(Cl)c4cc[nH]c4c3)nc2c1` [Compound 120, N-(4-chloro-1H-indol-6-yl)-5-(trifluoromethyl)-1H-benzo[d]imidazol-2-amine]: 0.2 to 1 µM; for `Cn1c(Nc2ccc3cc[nH]c3c2)nc2cc(C(F)(F)F)ccc21` [Compound 121, N-(1H-indol-6-yl)-1-methyl-5-(trifluoromethyl)-1H-benzo[d]imidazol-2-amine]: 0.2 to 1 µM; for `CCn1c(Nc2ccc3cc[nH]c3c2)nc2cc(C(F)(F)F)ccc21` [Compound 122, 1-ethyl-N-(1H-indol-6-yl)-5-(trifluoromethyl)-1H-benzo[d]imidazol-2-amine]: 1 to 5 µM.
The same measure for `FC(F)(F)c1ccc2[nH]c(Nc3ccc4cc[nH]c4c3)nc2c1` [Compound 123, N-(1H-indol-6-yl)-5-(trifluoromethyl)-1H-benzo[d]imidazol-2-amine]: 0.2 to 1 µM; for `CC(C)(C)C1CCC(c2ccc3[nH]c(Nc4cc(Cl)c5cc[nH]c5c4)nc3c2)CC1` (centres unmarked) [Compound 136, 5-(4-tert-butylcyclohexyl)-N-(4-chloro-1H-indol-6-yl)-1H-1,3-benzodiazol-2-amine]: 1 to 5 µM.
The same measure for `CCOC(=O)C1CCC(c2ccc3[nH]c(Nc4cc(Cl)c5cc[nH]c5c4)nc3c2)CC1` (centres unmarked) [Compound 138, ethyl 4-{2-[(4-chloro-1H-indol-6-yl)amino]-1H-1,3-benzodiazol-5-yl}cyclohexane-1-carboxylate]: 1 to 5 µM; for `OC1CCC(c2ccc3[nH]c(Nc4cc(Cl)c5cc[nH]c5c4)nc3c2)CC1` (centres unmarked) [Compound 139, 4-{2-[(4-chloro-1H-indol-6-yl)amino]-1H-1,3-benzodiazol-5-yl}cyclohexan-1-ol]: 1 to 5 µM; for `CC(C)(C)OC(=O)N1C2C=C(c3ccc4[nH]c(Nc5cc(Cl)c6cc[nH]c6c5)nc4c3)CC1CC2` (centres unmarked) [Compound 140, tert-butyl 3-{2-[(4-chloro-1H-indol-6-yl)amino]-1H-1,3-benzodiazol-5-yl}-8-azabicyclo[3.2.1]oct-2-ene-8-carboxylate]: 1 to 5 µM.
In turn, `Clc1cc(Nc2nc3cc(C4CCCOC4)ccc3[nH]2)cc2[nH]ccc12` (centres unmarked) [Compound 141, N-(4-chloro-1H-indol-6-yl)-5-(oxan-3-yl)-1H-1,3-benzodiazol-2-amine] came in with an EC50 of 0.2 to 1 µM.
To `FC(F)(F)C1CCC(c2ccc3[nH]c(Nc4cc(Cl)c5cc[nH]c5c4)nc3c2)CC1` (centres unmarked) [Compound 142, N-(4-chloro-1H-indol-6-yl)-5-[4-(trifluoromethyl)cyclohexyl]-1H-1,3-benzodiazol-2-amine] belongs 1 to 5 µM; to `CC1(C)CC(c2ccc3[nH]c(Nc4cc(Cl)c5cc[nH]c5c4)nc3c2)CC(C)(C)O1` [Compound 143, N-(4-chloro-1H-indol-6-yl)-5-(2,2,6,6-tetramethyloxan-4-yl)-1H-1,3-benzodiazol-2-amine], 5 to 100 µM; to `Cn1ccc(-c2ccc3[nH]c(Nc4cc(Cl)c5cc[nH]c5c4)nc3c2)n1` [Compound 144, N-(4-chloro-1H-indol-6-yl)-5-(1-methyl-1H-pyrazol-3-yl)-1H-1,3-benzodiazol-2-amine], 0.2 to 1 µM.
Take `Clc1cc(Nc2nc3cc(-c4ccc(CN5CCOCC5)s4)ccc3[nH]2)cc2[nH]ccc12` [Compound 145, N-(4-chloro-1H-indol-6-yl)-5-{5-[(morpholin-4-yl)methyl]thiophen-2-yl}-1H-1,3-benzodiazol-2-amine]: the concentration for a half-maximal effect (EC50) fell in the range of 0.2 to 1 µM.

The values above are taken from patent publication US20240051970A1, “COMPOUNDS AND COMPOSITIONS FOR TREATING CONDITIONS ASSOCIATED WITH STING ACTIVITY” (IFM Due, Inc., priority 2020, published 2024).
